Results on 9 compounds are retold here after patent publication US7642244B2, “Neuropeptide-2 receptor (Y-2R) agonists and uses thereof” (Hoffmann-La Roche Inc., priority 2005, dated 2010).

In general, EC50 refers to the concentration needed to bring the measured effect to its halfway point.

Read-outs that look alike come from different tables or passages of the source. Some results are limits rather than exact numbers.

The subject of one experiment is hypothalamic slices. To be noted: hypothalamic slices in vitro; cited from earlier work.
The target in a further experiment is T1, Y1R (Homo sapiens, UniProt P25929).
T1 sequence (P25929 1-384): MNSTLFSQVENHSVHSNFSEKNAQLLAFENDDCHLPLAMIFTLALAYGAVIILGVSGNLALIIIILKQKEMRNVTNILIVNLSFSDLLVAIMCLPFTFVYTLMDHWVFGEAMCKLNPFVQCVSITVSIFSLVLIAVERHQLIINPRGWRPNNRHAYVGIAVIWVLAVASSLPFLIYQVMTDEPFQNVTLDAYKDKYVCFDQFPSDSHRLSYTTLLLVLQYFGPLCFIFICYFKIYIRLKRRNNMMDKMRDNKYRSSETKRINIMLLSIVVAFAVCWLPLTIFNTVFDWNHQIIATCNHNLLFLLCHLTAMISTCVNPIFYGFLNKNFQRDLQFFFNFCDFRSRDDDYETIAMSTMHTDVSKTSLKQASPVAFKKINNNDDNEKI
The experiment is described as follows: Calcium flux assay (FLIPR), Y1R. The class given is cell-based.

In another experiment the target is Y4R (Homo sapiens, UniProt P50391). The experiment can be described thus: Calcium flux assay (FLIPR), Y4R. The class given is cell-based. A general note: Calcium assays in cells follow changes in intracellular calcium, usually with a dye or a luminescent sensor.
Sequence of Y4R (P50391 whole entry): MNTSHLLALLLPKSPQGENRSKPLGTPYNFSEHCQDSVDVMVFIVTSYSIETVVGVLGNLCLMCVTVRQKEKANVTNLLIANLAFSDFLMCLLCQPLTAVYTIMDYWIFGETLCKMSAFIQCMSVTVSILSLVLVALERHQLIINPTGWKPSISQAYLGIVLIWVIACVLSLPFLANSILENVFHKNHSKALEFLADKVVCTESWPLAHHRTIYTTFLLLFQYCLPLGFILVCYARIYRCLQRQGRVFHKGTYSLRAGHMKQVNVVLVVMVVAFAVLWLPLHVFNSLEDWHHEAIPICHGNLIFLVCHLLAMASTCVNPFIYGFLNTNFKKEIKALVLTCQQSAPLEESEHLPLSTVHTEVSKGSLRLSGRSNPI
The target in another experiment is T2, Y5R (Homo sapiens, UniProt Q15761).
T2 sequence (Q15761 1-445): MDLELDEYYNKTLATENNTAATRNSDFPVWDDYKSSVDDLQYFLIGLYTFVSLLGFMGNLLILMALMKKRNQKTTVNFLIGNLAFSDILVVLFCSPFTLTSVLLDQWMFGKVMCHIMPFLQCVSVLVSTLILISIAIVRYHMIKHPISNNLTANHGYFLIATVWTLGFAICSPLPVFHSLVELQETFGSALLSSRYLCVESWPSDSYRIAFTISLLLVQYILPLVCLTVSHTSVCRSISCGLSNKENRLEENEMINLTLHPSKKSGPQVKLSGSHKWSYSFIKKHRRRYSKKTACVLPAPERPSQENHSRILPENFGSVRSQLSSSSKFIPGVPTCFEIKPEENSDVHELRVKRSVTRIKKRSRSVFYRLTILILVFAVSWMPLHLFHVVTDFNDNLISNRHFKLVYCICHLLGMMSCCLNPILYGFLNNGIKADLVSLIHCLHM
The experiment is described as follows: Calcium flux assay (FLIPR), Y5R. In kind it is cell-based.

In experiment [1] the test system is female db/db mice. To be noted: q48 hr, s.c.
Method: Female db/db mice (C57BL/KsJ-Lep^db/db, Jackson Laboratories, USA) were at 6 weeks of age when received. The mice were housed in a temperature and humidity controlled environment with a 12 h light: 12 h dark cycle, and given access to food (Purina rodent chow 5008) and water ad libitum. The mice (9 week old) were pre-bled 4 days prior to drug treatment, and those within a narrow range of fasted blood glucose levels were selected for the study in order to minimize variability between vehicle control and drug-treated groups. […] Basal fasting (2 to 6 hr) blood glucose measurements were conducted weekly. On study day 20, an oral glucose tolerance test was performed following a 6 hr fast. Blood samples were collected from tail clips for determination of baseline values (t=0 min). The mice were then gavaged with an oral bolus of glucose (1 g/kg), and additional blood samples were collected at regular intervals (t=30, 60, and 120 min) for glucose measurement. […] The area under the curve (AUC0-120 min) was determined using the trapezoid method.
All data shown are the mean ± standard deviation (s.d.). Statistical evaluation of the data was carried out using one-way ANOVA, followed by Dunnett's test to determine where statistically significant differences existed between vehicle and drug treated groups. Differences were considered statistically significant at P<0.05. […]
Another experiment has as its system male DIO rats. To be noted: 5 and 10 mg/kg, q48 hr, s.c., 3-week treatment, male DIO rats (FIG. 23).
Experiment [2] has as its system female db/db mice. To be noted: acute, 1 and 10 mg/kg, s.c., 28 hr prior to OGTT, female db/db mice (FIG. 24).
Method: Female db/db mice (C57BL/KsJ-Lep^db/db, Jackson Laboratories, USA) were at 6 weeks of age when received. The mice were housed in a temperature and humidity controlled environment with a 12 h light: 12 h dark cycle, and given access to food (Purina rodent chow 5008) and water ad libitum. The mice (12-weeks old) were pre-bled 4 days prior to study, and those within a narrow range of fasted blood glucose levels were selected for the study in order to minimize variability between vehicle control and drug-treated groups. […] Blood samples were collected from tail clips following a 6 hr fast for determination of baseline values (t=0 min). The mice were then gavaged with an oral bolus of glucose (1 g/kg), and additional blood samples were collected at regular intervals (t=30, 60 and 120 min) for glucose measurement. […] The area under the curve (AUC0-120 min) was determined using the trapezoid method.
All data shown are the mean ± standard deviation (s.d.). Statistical evaluation of the data was carried out using one-way ANOVA, followed by Dunnett's test to determine where statistically significant differences existed between vehicle and drug treated groups. […] Data analysis was carried out with GraphPad software (GraphPad Prism).

Method for Y1R: (§1) During the incubation, test compounds were prepared at 3.5× the desired concentration in HBSS (20 mM HEPES)/0.05% BSA/1% DMSO and transferred to a 384-well plate for use on FLIPR® (FILPR, Fluorescent Imaging Plate Reader, is a registered trademark of Molecular Devices Corp.).
(§2) After incubation, both the cell and compound plates were brought to the FLIPR® and 20 μL of the diluted compounds were transferred to the cell plates by the FLIPR®. During the assay, fluorescence readings were taken simultaneously from all 384 wells of the cell plate every 1.5 seconds. Five readings were taken to establish a stable baseline, and then 20 μl of sample was rapidly (30 μl/sec) and simultaneously added to each well of the cell plate. The fluorescence was continuously monitored before, during and after sample addition for a total elapsed time of 100 seconds. Responses (increase in peak fluorescence) in each well following addition was determined. The initial fluorescence reading from each well, prior to ligand stimulation, was used as a zero baseline value for the data from that well. The responses were expressed as a percentage of maximal response of the positive control.
Method for Y4R: as §1, §2
Method for Y5R: as §1, §2
Method for male DIO rats: Male Sprague Dawley rats (7 weeks old) were obtained from Charles River Laboratories (USA) and housed in a temperature and humidity controlled environment with a 12 h light:12 h dark cycle. The rats were given ad libitum access to a high fat chow diet (HFD; 60% of dietary kcal as fat, Research Diets D12492) and water throughout the study. Following 7 weeks on the HFD, rats were sorted by body weight and caged singly.
All data shown are the mean ± standard error (s.e.m.). Statistical evaluation of the data was carried out using one-way ANOVA, followed by Dunnett's test to determine where statistically significant differences existed between vehicle and drug treated groups. Differences were considered statistically significant at P<005. Data analysis was carried out with GraphPad software (GraphPad Prism).

On to `N=C(N)NCCC[C@H](NC(=O)CC1(CC(=O)N2CCN(C3c4ccccc4NC(=O)c4ccccc43)CC2)CCCC1)C(=O)NCCn1c(=O)n(-c2ccccc2)n(-c2ccccc2)c1=O` (stereo partly shown) [BIIE0246], for which the NPY release result in the experiment with hypothalamic slices is reported as “increases NPY release”.

For the compound `CC[C@H](C)[C@H](N)C(=O)N[C@@H](CCCCN)C(=O)N1CCN(c2ccc3ncn(CC(=O)N[C@@H](CCCNC(=N)N)C(=O)N[C@@H](Cc4c[nH]cn4)C(=O)N[C@@H](Cc4ccc(O)cc4)C(=O)N[C@@H](CC(C)C)C(=O)N[C@@H](CC(N)=O)C(=O)N[C@@H](Cc4c[nH]c5ccccc45)C(=O)N[C@H](C(=O)N[C@H](C(=O)N[C@@H](CCCNC(=N)N)C(=O)N[C@@H](CCC(N)=O)C(=O)N(C)[C@@H](CCCNC(=N)N)C(=O)N[C@@H](Cc4ccc(O)cc4)C(N)=O)[C@@H](C)O)C(C)C)c(=O)c3c2)CC1` [Example 25], the EC50 was 0.298 µM on Y1R, more than 5 µM at Y4R and more than 5 µM on Y5R.

On to `CCCC[C@H](NC(=O)[C@@H](N)[C@@H](C)CC)C(=O)N1CCN(c2ccc3ncn(CC(=O)N[C@@H](CCCNC(=N)N)C(=O)N[C@@H](Cc4c[nH]cn4)C(=O)N[C@@H](Cc4ccc(O)cc4)C(=O)N[C@@H](CC(C)C)C(=O)N[C@@H](CC(N)=O)C(=O)N[C@@H](Cc4c[nH]c5ccccc45)C(=O)N[C@H](C(=O)N[C@H](C(=O)N[C@@H](CCCNC(=N)N)C(=O)N[C@@H](CCC(N)=O)C(=O)N(C)[C@@H](CCCNC(=N)N)C(=O)N[C@@H](Cc4ccc(O)cc4)C(N)=O)[C@@H](C)O)C(C)C)c(=O)c3c2)CC1` [Example 26], for which the EC50 at Y1R, on Y4R and on Y5R was more than 5 µM throughout.

With `CC[C@H](C)[C@H](NC(C)=O)C(=O)N[C@@H](CCCCN)C(=O)N1CCN(c2ccc3ncn(CC(=O)N[C@@H](CCCNC(=N)N)C(=O)N[C@@H](Cc4c[nH]cn4)C(=O)N[C@@H](Cc4ccc(O)cc4)C(=O)N[C@@H](CC(C)C)C(=O)N[C@@H](CC(N)=O)C(=O)N[C@@H](Cc4c[nH]c5ccccc45)C(=O)N[C@H](C(=O)N[C@H](C(=O)N[C@@H](CCCNC(=N)N)C(=O)N[C@@H](CCC(N)=O)C(=O)N(C)[C@@H](CCCNC(=N)N)C(=O)N[C@@H](Cc4c(F)cc(O)cc4F)C(N)=O)[C@@H](C)O)C(C)C)c(=O)c3c2)CC1` [Example 27], the EC50 at Y1R and on Y4R was more than 5 µM in each case.

In the case of `CCCCC(=O)N[C@H](C(=O)N[C@@H](CCCCN)C(=O)N1CCN(c2ccc3ncn(CC(=O)N[C@@H](CCCNC(=N)N)C(=O)N[C@@H](Cc4c[nH]cn4)C(=O)N[C@@H](Cc4ccc(O)cc4)C(=O)N[C@@H](CC(C)C)C(=O)N[C@@H](CC(N)=O)C(=O)N[C@@H](Cc4c[nH]c5ccccc45)C(=O)N[C@H](C(=O)N[C@H](C(=O)N[C@@H](CCCNC(=N)N)C(=O)N[C@@H](CCC(N)=O)C(=O)N(C)[C@@H](CCCNC(=N)N)C(=O)N[C@@H](Cc4ccc(O)cc4)C(N)=O)[C@@H](C)O)C(C)C)c(=O)c3c2)CC1)[C@@H](C)CC` [Example 29], the EC50 at Y1R, at Y4R and at Y5R was more than 5 µM each time.

For `CC[C@H](C)[C@H](NC(=O)C(C)(C)C)C(=O)N[C@@H](CCCCN)C(=O)N1CCN(c2ccc3ncn(CC(=O)N[C@@H](CCCNC(=N)N)C(=O)N[C@@H](Cc4c[nH]cn4)C(=O)N[C@@H](Cc4ccc(O)cc4)C(=O)N[C@@H](CC(C)C)C(=O)N[C@@H](CC(N)=O)C(=O)N[C@@H](Cc4c[nH]c5ccccc45)C(=O)N[C@H](C(=O)N[C@H](C(=O)N[C@@H](CCCNC(=N)N)C(=O)N[C@@H](CCC(N)=O)C(=O)N(C)[C@@H](CCCNC(=N)N)C(=O)N[C@@H](Cc4ccc(O)cc4)C(N)=O)[C@@H](C)O)C(C)C)c(=O)c3c2)CC1` [Example 30], the EC50 on Y1R, on Y4R and on Y5R was more than 5 µM throughout.

Turning to `CC[C@H](C)[C@H](NC(=O)CC1CCCCC1)C(=O)N[C@@H](CCCCN)C(=O)N1CCN(c2ccc3ncn(CC(=O)N[C@@H](CCCNC(=N)N)C(=O)N[C@@H](Cc4c[nH]cn4)C(=O)N[C@@H](Cc4ccc(O)cc4)C(=O)N[C@@H](CC(C)C)C(=O)N[C@@H](CC(N)=O)C(=O)N[C@@H](Cc4c[nH]c5ccccc45)C(=O)N[C@H](C(=O)N[C@H](C(=O)N[C@@H](CCCNC(=N)N)C(=O)N[C@@H](CCC(N)=O)C(=O)N(C)[C@@H](CCCNC(=N)N)C(=O)N[C@@H](Cc4ccc(O)cc4)C(N)=O)[C@@H](C)O)C(C)C)c(=O)c3c2)CC1` [Example 31], the EC50 at Y1R, on Y4R and on Y5R was more than 5 µM in each case.

`CC[C@H](C)[C@H](NC(=O)c1ccccc1)C(=O)N[C@@H](CCCCN)C(=O)N1CCN(c2ccc3ncn(CC(=O)N[C@@H](CCCNC(=N)N)C(=O)N[C@@H](Cc4c[nH]cn4)C(=O)N[C@@H](Cc4ccc(O)cc4)C(=O)N[C@@H](CC(C)C)C(=O)N[C@@H](CC(N)=O)C(=O)N[C@@H](Cc4c[nH]c5ccccc45)C(=O)N[C@H](C(=O)N[C@H](C(=O)N[C@@H](CCCNC(=N)N)C(=O)N[C@@H](CCC(N)=O)C(=O)N(C)[C@@H](CCCNC(=N)N)C(=O)N[C@@H](Cc4ccc(O)cc4)C(N)=O)[C@@H](C)O)C(C)C)c(=O)c3c2)CC1` [Example 32]: the EC50 on Y1R, at Y4R and at Y5R was more than 5 µM throughout.

On to “Ile((PEG-30,000)CH2CH2NHCOCH2CH2CO)(ε)Lys-Pqa-Arg-His-Tyr-Leu-Asn-Trp-Val-Thr-Arg-Gln-(NMe)Arg-Tyr-NH2 [Example 41]”, for which, in the experiment with female db/db mice [1] (1, 3 and 10 mg/kg, day 8, 15 and 21, female db/db mice (FIG. 25A)), the “basal blood glucose levels versus vehicle-treated animals” value was “reduced basal blood glucose levels”. Further, the “glucose excursion in response to an oral glucose challenge” value in the experiment on female db/db mice [1] (day 20, 3 and 10 mg/kg, female db/db mice (FIG. 25B)) is recorded as “significantly decreased glucose excursion”; in the experiment with female db/db mice [2], “significantly decreased glucose excursion”. Also, the “body weight gain versus vehicle-treated animals” value in the experiment on male DIO rats is “significant decrease in body weight gain”.
